Experimental data taken from ChEMBL document CHEMBL4610126, “EEDi-5285: An Exceptionally Potent, Efficacious, and Orally Active Small-Molecule Inhibitor of Embryonic Ectoderm Development” (J Med Chem, 2020).

Assays:
KARPAS-422 [1] = test: Growth inhibition of human KARPAS422 cells incubated for 7 days by WST8 assay; conditions: KARPAS-422, 168 h
Pfeiffer [2] = test: Growth inhibition of human Pfeiffer cells incubated for 7 days by WST8 assay; assay type: functional, cell-based; conditions: 168 h
[3] = Plasma concentration in mouse at 25 mg/kg, po after 1 hr by LC-MS/MS analysis; assay type: ADME, organism-based
[4] = Plasma concentration in mouse at 25 mg/kg, po after 3 hrs by LC-MS/MS analysis; assay type: ADME, organism-based
[5] = Plasma concentration in mouse at 25 mg/kg, po after 6 hrs by LC-MS/MS analysis; assay type: ADME, organism-based
KARPAS-422 [6] = test: Antitumor activity against human KARPAS422 cells xenografted in SCID mouse assessed as induction of tumor regression at 50 mg/kg, po dosed daily for 28 days relative to control; assay type: functional
KARPAS-422 [7] = test: Antitumor activity against human KARPAS422 cells xenografted in SCID mouse assessed as induction of tumor regression at 100 mg/kg, po dosed daily for 28 days relative to control; assay type: functional
[8] = Toxicity in SCID mouse xenografted with human KARPAS422 cells assessed as induction of body weight loss at 50 to 100 mg/kg, po dosed daily for 28 days; assay type: organism-based, KARPAS-422; conditions: in vivo, 672 h
[9] = AUC (0 to t) in mouse at 2 mg/kg, iv by LC-MS/MS analysis; assay type: ADME, organism-based; conditions: in vivo
[10] = Cmax in mouse at 10 mg/kg, po by LC-MS/MS analysis; assay type: ADME, organism-based; design: dose 10 mg/kg, route oral; conditions: in vivo
[11] = AUC (0 to t) in mouse at 10 mg/kg, po by LC-MS/MS analysis; assay type: ADME, organism-based; conditions: in vivo
[12] = Plasma clearance in mouse at 2 mg/kg, iv by LC-MS/MS analysis; assay type: ADME, organism-based
[13] = Volume of distribution at steady state in mouse at 2 mg/kg, iv by LC-MS/MS analysis; assay type: ADME, organism-based; conditions: in vivo, read-out: Vdss
Polycomb protein EED = Polycomb protein EED (Homo sapiens, UniProt O75530)
Chain of Polycomb protein EED (O75530 whole entry): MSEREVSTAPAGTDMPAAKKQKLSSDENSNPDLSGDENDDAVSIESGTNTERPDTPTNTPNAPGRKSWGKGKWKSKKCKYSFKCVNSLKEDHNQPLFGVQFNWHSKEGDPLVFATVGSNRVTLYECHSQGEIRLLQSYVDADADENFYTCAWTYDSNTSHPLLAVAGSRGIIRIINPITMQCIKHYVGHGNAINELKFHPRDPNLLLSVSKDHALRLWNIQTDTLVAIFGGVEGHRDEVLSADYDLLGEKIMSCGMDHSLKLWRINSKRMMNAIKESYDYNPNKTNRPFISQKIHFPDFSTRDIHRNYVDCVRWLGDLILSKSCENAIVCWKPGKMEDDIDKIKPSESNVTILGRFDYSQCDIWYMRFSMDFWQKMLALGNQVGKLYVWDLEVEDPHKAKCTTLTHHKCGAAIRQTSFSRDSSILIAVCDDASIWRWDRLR

[14] = Terminal half life in mouse at 10 mg/kg, po by LC-MS/MS analysis; assay type: ADME, organism-based; conditions: in vivo, read-out: beta t1/2 (converted)
Pfeiffer [15] = test: Growth inhibition of human Pfeiffer cells incubated for 10 days by WST8 assay; assay type: functional, cell-based; conditions: 240 h
KARPAS-422 [16] = test: Antitumor activity against human KARPAS422 cells xenografted in mouse assessed as inhibition of tumor growth at 100 mg/kg, po dosed twice daily for 36 days; assay type: functional; conditions: KARPAS-422, po, 864 h, read-out: TGI

SMILES	IC50 (KARPAS-422 [1]) [nM]	IC50 (Pfeiffer [2]) [nM]	concentration at 1 h [3] [ng/mL]	concentration at 3 h [4] [ng/mL]	concentration at 6 h [5] [ng/mL]	IC50 (Polycomb protein EED) [nM]	also measured
CP(C)(=O)c1ncn2c(NCc3c(F)ccc4c3CCO4)ncc(-c3ccccc3)c12	8.1	–	–	–	–	–	–
CCOC(=O)c1ncn2c(NCc3cc(OC)ccc3F)ncc(-c3ccccc3)c12	2700	–	–	–	–	–	–
CS(=O)(=O)c1ncn2c(NCc3c(F)ccc4c3CCO4)ncc(-c3ccc(C4CC4)nc3)c12	0.5	0.02	1100	608	452	0.2	Activity (KARPAS-422 [6]): 100%; Activity (KARPAS-422 [7]): 100%; Activity [8]: Non-Toxic; AUC(0-t) [9]: 1700 ng·h/mL; Cmax [10]: 1800 ng/mL; AUC(0-t) [11]: 6000 ng·h/mL; clearance [12]: 20 mL/min/kg; Vd [13]: 1.4 L/kg
CS(=O)(=O)c1ncn2c(NCc3c(F)ccc4c3CCO4)ncc(C3CCN(S(=O)(=O)C4CC4)CC3)c12	8.2	–	–	–	–	3.1	–
Cc1nc(C(F)(F)F)ccc1-c1cnc(NCc2c(F)ccc3c2CCO3)n2cnc(S(C)(=O)=O)c12	1.7	0.05	896	794	415	0.4	–
Cc1ccc(-c2cnc(NCc3c(F)ccc4c3CCO4)n3cnc(S(C)(=O)=O)c23)c(C)n1	–	–	2480	754	485	0.5	Activity (KARPAS-422 [6]): 100%; Activity (KARPAS-422 [7]): 100%; Activity [8]: Non-Toxic; AUC(0-t) [9]: 800 ng·h/mL; half-life [14]: 2.1 h; Cmax [10]: 1300 ng/mL; AUC(0-t) [11]: 2600 ng·h/mL; clearance [12]: 40 mL/min/kg; Vd [13]: 1.6 L/kg
CCOC(=O)c1ncn2c(NCc3cccc4c3OCO4)ncc(-c3ccccc3)c12	300	–	–	–	–	40	–
CS(=O)(=O)c1ncn2c(NCc3c(F)ccc4c3CCO4)ncc(-c3ccc(C(F)(F)F)nc3)c12	1.7	0.03	468	189	139	0.3	–
CS(=O)(=O)c1ncn2c(NCc3c(F)ccc4c3CCO4)ncc(C3CCOCC3)c12	52	–	–	–	–	12	–
Cc1ccc(-c2cnc(NCc3c(F)ccc4c3CCO4)n3cnc(S(C)(=O)=O)c23)cn1	1.4	0.03	340	94	29	–	–
Fc1ccc2c(c1CNc1ncc(-c3ccccc3)c3c(C(F)(F)F)ncn13)CCO2	120	–	–	–	–	–	–
CCN1CCC(c2cnc(NCc3c(F)ccc4c3CCO4)n3cnc(S(C)(=O)=O)c23)CC1	126	–	–	–	–	23	–
CS(=O)(=O)c1ccc(-c2cnc(NCc3c(F)ccc4c3CCO4)n3cnc(S(C)(=O)=O)c23)cc1	1.4	0.02	598	171	109	–	–
CNC(=O)c1ncn2c(NCc3c(F)ccc4c3CCO4)ncc(-c3ccccc3)c12	60	–	–	–	–	–	–
CS(=O)(=O)c1ncn2c(NCc3c(F)ccc4c3CCO4)ncc(-c3ccccc3)c12	2.2	–	–	–	–	–	–
CCOC(=O)c1ncn2c(NCc3cccc4c3CCO4)ncc(-c3ccccc3)c12	210	–	–	–	–	–	–
CS(=O)(=O)c1ncn2c(NCc3c(F)ccc4c3CCO4)ncc(C3CCS(=O)(=O)CC3)c12	29	–	–	–	–	7.8	–

SMILES	IC50 (KARPAS-422 [1]) [nM]	IC50 (Pfeiffer [2]) [nM]	concentration at 1 h [3] [ng/mL]	concentration at 3 h [4] [ng/mL]	concentration at 6 h [5] [ng/mL]	IC50 (Polycomb protein EED) [nM]	also measured
CCOC(=O)c1ncn2c(NCc3ccccc3)ncc(-c3ccccc3)c12	3000	–	–	–	–	–	–
Cn1cc(-c2cnc(NCc3c(F)ccc4c3CCO4)n3cnc(S(C)(=O)=O)c23)cn1	3.1	0.27	468	50	56	0.5	–
CS(=O)(=O)c1ncn2c(NCc3c(F)ccc4c3CCO4)ncc(-c3ccc(C(F)F)nc3)c12	2.4	0.02	242	18	< 10	0.2	–
CCOC(=O)c1ncn2c(NCc3c(F)cccc3OC)ncc(-c3ccccc3)c12	300	–	–	–	–	50	–
CN(C)[C@H]1CN(C2CCc3cccc(F)c32)C[C@@H]1c1ccc(N2CCN(S(C)(=O)=O)CC2)cc1 (some centres undefined)	–	–	–	–	–	–	IC50 (Pfeiffer [15]): 69 nM
Cc1cc(S(C)(=O)=O)ccc1-c1cnc(NCc2c(F)ccc3c2CCO3)n2cnc(S(C)(=O)=O)c12	1.6	0.02	591	279	98	0.9	–
Cc1ncccc1-c1cnc(NCc2c(F)ccc3c2CCO3)n2cnc(S(C)(=O)=O)c12	3.6	0.08	488	194	91	–	–
CCOC(=O)c1ncn2c(NCc3ccc(OC)cc3F)ncc(-c3ccccc3)c12	4300	–	–	–	–	–	–
CS(=O)(=O)c1ccc(-c2cnc(NCc3c(F)ccc4c3CCO4)n3cnc(S(C)(=O)=O)c23)cn1	2.9	0.5	351	36	41	–	–
CC(=O)N1CCC(c2cnc(NCc3c(F)ccc4c3CCO4)n3cnc(S(C)(=O)=O)c23)CC1	6.5	–	–	–	–	2.8	–
CNC(=O)c1ncn2c(NCc3ccco3)ncc(-c3ccccc3)c12	2400	–	–	–	–	–	–
CS(=O)(=O)c1ncn2c(NCc3c(F)ccc4c3CCO4)ncc(C3CCN(S(C)(=O)=O)CC3)c12	15.3	–	–	–	–	7.9	–
CS(=O)(=O)c1ncn2c(NCc3c(F)ccc4c3CCO4)ncc(-c3ccc(F)cc3)c12	5.2	0.12	43	< 10	< 10	0.4	–
CCOC(=O)c1ncn2c(NCc3cccc4c3OCC4)ncc(-c3ccccc3)c12	6300	–	–	–	–	–	–
CCOC(=O)c1ncn2c(NCc3ccco3)ncc(-c3ccccc3)c12	1000	–	–	–	–	–	–
CS(=O)(=O)c1ccc(-c2cnc(NCc3ccco3)n3cnnc23)cc1	180	–	–	–	–	17.6	inhibition in vivo at 100 mg/kg (KARPAS-422 [16]): 85%
